Earlier results as cited in US7276253B2, “Stable drug form for oral administration with benzimidazole derivatives as active ingredient and process for the preparation thereof” (AstraZeneca AB, priority 1996, dated 2007).

Conditions: aqueous solution at pH values under 4

## COc1ccc2[nH]c([S+]([O-])Cc3ncc(C)c(OC)c3C)nc2c1 (stereo not shown) [Omeprazole, 5-methoxy-2(((4-methoxy-3,5-dimethyl-2-pyridyl)methyl)-sulfinyl)-1H-benzimidazole]
  half-life: less than ten
